# Measurements from patent US5223411A, “Nonionic surfactants having a carbamoyl group and process for treatment of a proteins containing medium using the same” (Centre National de la Recherche Scientifique (CNRS), priority 1990, dated 1993).
# Several values for one entry are separate records, joined by “and”; a condition that tells them apart may be missing. Equal values may be shown once. Read-outs that look alike come from different tables or passages of the source.
# Key:
# [1] = tested on: P. multocida succinate dehydrogenase; test: Enzyme assay, succinate dehydrogenase; type: biochemical, Pasteurella multocida; details: for Km: read-out: Km ± SD
# Protocol: (§1) P. multocida succinate dehydrogenase was assayed as described by Osborn et al in […] Na phosphate buffer (pH 7.4) containing 10 mM KCN, Na succinate (concentration range: 0.25 to 25 mM), 30 ug of thiazolyl blue, and 10 μg of phenazine methosulfate per milliliter. The samples contained 25, 50, or 100 μg of plasma membrane protein per milliliter and the absorbance at 550 nm was recorded for 10 min at 25° C.P. multocida NADH oxidase was assayed in 50 mM Tris-HCl buffer (pH 8.0) containing 0.2 mM dithiothreitol and 0.12 mM NADH. The samples contained 50,75, or 100 μg of plasma membrane protein per milliliter and the absorbance at 340 nm was recorded as above. The activity of the soluble form of Escherichia coli β-lactamase was measured by using Nitrocefin as substrate and by monitoring the rate of increase in the absorbance at 488 nm for 3 min at 25° C. One milliliter of 20 mM Na phosphate buffer (pH 7.4) contained Nitrocefin (concentration range: 5 to 20 uM) and 0.76 ug (i.e., 2×10^-3 units) of β-lactamase.
# (§2) The four enzyme activities were measured in the absence of surfactants and in the presence of 3 or 30 mM HECAMEG. Controls were also performed with 35 mM SDS. Km and V max were determined from Lineweaver-Burk plots, each point being the average of three estimations.
# [2] = tested on: Escherichia coli β-lactamase; test: Enzyme assay, β-lactamase (Nitrocefin substrate); type: biochemical; details: for Km: read-out: Km ± SD
# Protocol: as §1, §2
# [3] = molecular target: T1, bacteriorhodopsin (Halobacterium salinarum, UniProt P02945); test: Absorbance spectrum of bacteriorhodopsin; parameters: species or system H. halobium; details: native 558 nm
# T1 construct: The untrated (native) purple membrane of H. halobium; endogenous in cells; host or cells: Halobacterium halobium R1, purified purple membrane
# T1 sequence (P02945 14-262): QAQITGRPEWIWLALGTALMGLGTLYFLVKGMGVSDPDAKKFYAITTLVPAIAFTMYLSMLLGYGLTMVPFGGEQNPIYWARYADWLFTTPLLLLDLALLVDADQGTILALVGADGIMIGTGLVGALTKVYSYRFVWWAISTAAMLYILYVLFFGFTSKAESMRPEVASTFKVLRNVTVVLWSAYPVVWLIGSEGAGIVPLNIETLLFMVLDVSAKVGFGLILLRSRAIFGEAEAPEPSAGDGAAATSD
# Protocol: Absorbance of dark-adapted bacteriorhodopsin was recorded between 350 and 700 nm. […] When the membrane was solubilized with 1% SDS, leading to the extensive denaturation of bacteriorhodopsin, the absorbance at 558 nm was lost to the benefit of a new maximum at 390 nm, corresponding to free retinal dissolved in SDS. These two spectra were thus representative, respectively, of the native and denatured forms of bacteriorhodopsin. Upon extraction with HECAMEG, the absorption spectrum of the protein was similar to that of the native state protein with, however, a slight blue shift in the absorption maximum (λmax=550 nm). Some absorption was also recorded at 390 nm, but it was much lower than that in SDS, even when HECAMEG was used at concentrations up to 0.1 M. Because of the scatering of light by membrane particles, the 390-nm peak could not be observed in untreated samples.
# [4] = tested on: P. multocida NADH oxidase; test: Enzyme assay, NADH oxidase; type: biochemical, Pasteurella multocida; details: for Km: read-out: Km ± SD
# Protocol: as §1, §2
# [5] = molecular target: T2, Bovine milk lactoperoxidase (Bos taurus, UniProt P80025); test: Enzyme assay, lactoperoxidase (o-dianisidine substrate); type: biochemical
# T2 construct: from tissue; host or cells: bovine milk
# Protocol: Bovine milk lactoperoxidase was assayed according to George except that o-dianisidine was used as the substrate instead of gaiacol. One milliliter of 20 mM Na phosphate buffer (pH 7.4) contained […] (concentration range: 0.06 to 0.9 mM) 1 mM o-dianisidine, and 25×10^-3 μg (i.e., 1.15×10^-3 units) of lactoper oxidase. The absorbance at 435 nm was recorded as for β-lactamase.
# as §2
# [6] = CMC, spectrofluorometry (technique of Vendittis et al.); type: physicochemical; details: for CMC: spectrofluorometry at 4° and 20° C.
# Protocol: (§3) The CMC of HECAMEG was colorimetrically determined with the iodine method of Ross and Olivier and the Coomassie blue G method of Rosenthal and Koussaie and spectrofluorometrically with the technique of Vendittis et al. In the latter case, excitation was performed at 370 nm and emission recorded at 490 nm.
# (§4) The CMC of the detergent was estimated by three distinct spectrophotometric methods of OG (n-octylα-D glucopyranoside) was used for comparison. The iodine spectrophotometric assay indicated a CMC of 17 mM while values of 14.5 and 15 mM were obtained with Coomassie blue G, and 19.5 mM was obtained by spectrofluorometry at 4° and 20° C. The second method was not reliable with OG, while the two other methods indicated for this surfactant, as expected, a CMC of 25 mM.
# [7] = molecular target: T3, bacteriorhodopsin from the purple membrane of H. halobium (Halobacterium salinarum, UniProt P02945); test: Membrane protein extraction with detergents, purple membrane
# T3 construct: The untrated (native) purple membrane of H. halobium; endogenous in cells; host or cells: Halobacterium halobium R1, purified purple membrane
# T3 sequence (P02945 14-262): T1 sequence (P02945 14-262)
# From the text: Spiroplasma melliferum B88 was cultivated and membranes were purified as described. The purple membrane of Halobium R1 was purified according to Oesterhelt and Stoeckenius (22). Pasteurella multocida was cultivated in liquid medium containing per liter 20 g of Tryptose (Difco), 1 g of glucose, 5 g of NaCl, and 2,5 g of yeast extract (Difco), pH 7.4. The cells were harvested by centrifugation and disrupted with a French press. Plasma membranes were isolated according the technique of Osborn and Munson.
# In order to extract membrane proteins, 200 μl of a membrane suspension in 0.1 M Na phosphate buffer (pH 7.4) was mixed with 200 μl of detergent dissolved in water. After 90 min at room temperature, the mixture was centrifuged at 260,000 g for 15 min at 20° C. (Beckman TL-100 ultracentrifuge, TL A 100.1 rotor). The supernatant was recovered for further analysis, while the pellet was dispersed in 400 μl of 2% SDS in 50 mM Tris-HCl buffer (pH 8.0). After 60 min at room temperature, the mixture was centrifuged as above and the supernatant recovered for analysis.
# It was possible to extract up to 75% of bacteriorhodopsin from the purple membrane and 40% of protein from the spiroplasmal membrane with 75 mM HECAMEG. This corresponds respectively to ratios of 9 and 26 ug of protein/μmol of detergent. The efficacy of the extraction was not improved by increasing the detergent concentration. […]
# [8] = CMC, iodine method of Ross and Olivier; type: physicochemical; details: iodine spectrophotometric assay
# Protocol: as §3, §4
# [9] = CMC, Coomassie blue G method of Rosenthal and Koussaie; type: physicochemical
# Protocol: as §3, §4
# [10] = Stability of HECAMEG solutions; type: physicochemical; details: 4° C.
# [11] = molecular target: T4, spiralin (Spiroplasma melliferum, UniProt P21625); details: crossed immunoelectrophoresis, rabbit antibodies against S. melliferum membrane
# T4 construct: Spiroplasma melliferum B88 was cultivated and membranes were purified as described; endogenous in cells; host or cells: Spiroplasma melliferum B88, purified membranes
# Protocol: Antibodies directed against the S. melliferum membrane were prepared in rabbits as described. The hyperimmune sera were filtered through 0.45-μm-pore membranes and stored at -25° C. Crossed immunoelectrophoresis was performed according to the method of Laurell in 1% agarose gel in veronal buffer, pH 8.6 (I=0.03). After unprecipitaded proteins where eluted and gels were dried, immunoprecipitates were stained with Coomassie blue R-250.
# [12] = Detergent dialysis (Lipoprep apparatus); type: physicochemical; details: 30 mM in 50 mM Na phosphate pH 7.4, 5 kDa cutoff membranes, 25° C.
# Protocol: Dialysis experiments with HECAMEG were performed with the Lipoprep apparatus using a three-compartment Teflon cell with two cellulose dialysis membranes (molecular mass cutoff 5 kDa). The central compartment was filled with 8 ml of 30 mM HECAMEG in 50 mM Na phosphate buffer, pH 7.4. The same buffer, but without detergent circulated through the two side compartment for 24 h at 25° C. Dialysis speed was estimated by measuring HECAMEG concentration within the central cell.
# The dialyzability of HECAMEG was estimated by the use of the Lipoprep dialysis system under conditions corresponding to those used for the preparation of liposomes. […] Indeed, the concentration of HECAMEG in the central compartment of the cell dropped by 50% upon 3 h of dialysis and the surfactant was no longer detected after about 18 h.
# [13] = Solubility in water, usual buffers and organic solvents; type: physicochemical
# [14] = molecular target: T5, spiralin, the main protein of the S. melliferum membrane (Spiroplasma melliferum, UniProt P21625)
# T5 construct: Spiroplasma melliferum B88 was cultivated and membranes were purified as described; endogenous in cells; host or cells: Spiroplasma melliferum B88, purified membranes
# Protocol: Since the membrane of melliferum has a complex protein composition, the protein extracted by HECAMEG was analyzed by SDS PAGE. Separation of polypeptides was performed in 100×100×4 mm gels in 40 mM Tris-20 mM Na acetate buffer (pH 7.4) containing 2 mM EDTA and 0.1% SDS. The upper gel contained 4.83% acrylamide and 0.17% bisacrylamide while the lower separating gel contained 7.72% acrylamide and 0.28% bisacrylamide. The samples contained 2% SDS and 0.12 M 2 mercaptoethanol and were heated at 60° C. for 5 min prior to electrophoresis. Bromphenol blue was used as the tracking dye. Protein bands were stained with Coomassie blue R-250 in an acetic acid/methanol/water mixture (1/4/5,v/v). […] Optimal selectivity was obtained with surfactant concentration in the 60 to 65 mM range.
# [15] = stated for comparison; cited from earlier work
# T5 sequence (P21625 24-242): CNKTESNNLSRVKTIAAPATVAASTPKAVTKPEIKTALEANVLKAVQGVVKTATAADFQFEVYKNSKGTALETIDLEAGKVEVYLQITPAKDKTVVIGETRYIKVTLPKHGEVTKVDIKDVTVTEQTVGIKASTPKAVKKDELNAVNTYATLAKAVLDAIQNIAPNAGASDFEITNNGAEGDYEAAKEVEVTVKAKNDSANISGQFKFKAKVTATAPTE
# T4 sequence (P21625 24-242): as above
smiles,measurement,setting,value
"CCCCCCCCCCCCOS(=O)(=O)[O-].[Na+] [SDS, sodium dodecyl sulfate, reference compound]",enzyme activity upon treatment with SDS,[1]; 35 mM SDS,completely inhibited
same,enzyme activity with SDS,[2]; 35 mM SDS,fully inhibited
same,absorption maximum of bacteriorhodopsin preparation,[3]; membrane solubilized with 1% SDS,390 nm
same,enzyme activity upon treatment with SDS,[4]; 35 mM SDS,completely inhibited
same,enzyme activity with SDS,[5]; 35 mM SDS,fully inhibited
"CCCCCCCNC(=O)OC[C@H]1O[C@H](OC)[C@H](O)[C@@H](O)[C@@H]1O [HECAMEG, 6-0 (N-Heptylcarbamoyl) methyl α-D-glucopyranoside]",CMC,[6],19.5 mM
same,critical micellar concentration (CMC),"[6]; summary value, method not named at the place",19.5 mM and 6.5 g/l
same,ratio protein extracted per detergent,"[7]; 75 mM HECAMEG, purple membrane",9 ug of protein/μmol of detergent
same,membrane protein extraction below the CMC,[7]; concentrations below the CMC,inefficient
same,CMC,[8],17 mM
same,CMC,[9],14.5 mM and 15 mM
same,stability of solutions,[10],stable for several weeks
same,antigenicity of spiralin after solubilization,[11],remained highly antigenic
same,dialysis time after which surfactant was no longer detected,[12],about 18 h
same,drop of concentration in the central compartment,[12]; upon 3 h of dialysis,50%
same,inhibition of enzyme by the surfactant,[1],not inhibited
same,Vmax ± SD,"[1]; HECAMEG 0.1%, 3 mM",163 ± 41 µmol/min
same,Km,"[1]; HECAMEG 0.1%, 3 mM",947 ± 52 µM
same,Vmax ± SD,"[1]; HECAMEG 1%, 30 mM",357 µmol/min and 357 ± 50 µmol/min
same,Km,"[1]; HECAMEG 1%, 30 mM",901 ± 65 µM
same,effect on Km and Vmax below the CMC,[1]; below the CMC,neither Km nor Vmax was significantly modified
same,change of Vmax,[2]; 30 mM surfactant,decreased threefold
same,Vmax ± SD,"[2]; HECAMEG 0.1%, 3 mM",143 ± 16.5 µmol/min
same,Km,"[2]; HECAMEG 0.1%, 3 mM",62 ± 10 µM
same,Vmax ± SD,"[2]; HECAMEG 1%, 30 mM",30.5 ± 0.4 µmol/min
same,Km,"[2]; HECAMEG 1%, 30 mM",18.1 ± 0.6 µM
same,enzyme activity above the CMC,[2]; above the CMC,decreased
same,effect on enzyme below the CMC,[2]; below the CMC,apparent activation
same,absorption maximum (λmax) of bacteriorhodopsin,[3]; upon extraction with HECAMEG,550 nm
same,solubility in water,[13]; even at 0° C.,high solubility
same,solubility,"[13]; usual buffers, in currant buffers, at 4° C., read-out: solubility",> 60 mg/mL
same,solubility,"[13]; water, Tris-HCl and phosphate buffers, even at 0° C., read-out: solubility in water and usual buffers",≥ 200000 µM
same,solubility in water and organic solvents,"[13]; water, alcohols, methylene chloride, tetrahydrofuranne, DMSO",very soluble
same,inhibition of enzyme by the surfactant,[4],not inhibited
same,Vmax ± SD,"[4]; HECAMEG 0.1%, 3 mM",4.0 ± 0.5 µmol/min
same,Km,"[4]; HECAMEG 0.1%, 3 mM",12.5 ± 1.2 µM
same,Vmax ± SD,"[4]; HECAMEG 1%, 30 mM",10.3 ± 1.2 µmol/min and 10.3 µmol/min
same,Km,"[4]; HECAMEG 1%, 30 mM",3.3 ± 0.6 µM
same,change of affinity of the enzyme for its substrate,[4]; above the CMC (30 mM),increased fourfold
same,effect on Km and Vmax below the CMC,[4]; below the CMC,neither Km nor Vmax was significantly modified
same,polypeptides extracted (including spiralin) of 28 detected in the membrane,[14]; 60 to 65 mM surfactant,12
same,solubilization of the fibril protein,[14]; S. melliferum membrane,not able to solubilize the fibril protein
same,change of Vmax,[5]; 30 mM surfactant,increased about threefold
same,Vmax ± SD,"[5]; HECAMEG 0.1%, 3 mM",(609 ± 30) × 10^-3 μmol/min
same,Vmax ± SD,"[5]; HECAMEG 1%, 30 mM",(1238 ± 4) × 10^-3 μmol/min
same,enzyme activity above the CMC,[5]; above the CMC,increased
same,effect on enzyme below the CMC,[5]; below the CMC,apparent activation
"CCCCCCCCO[C@H]1O[C@H](CO)[C@@H](O)[C@H](O)[C@H]1O [OG, n-octylα-D glucopyranoside, reference compound]",CMC,[6],25 mM
same,CMC,[8],25 mM
same,CMC of comparison surfactants,[15],25 mM
